Like-named read-outs stand apart in the source and are kept apart here.
Key:
CeTS = target: T1, CeTS (Caenorhabditis elegans, UniProt Q9Y052); experiment: Inhibition of TS-catalyzed reaction (tritium release from [5-3H]dUMP); assay type: biochemical, C. elegans; conditions: for remaining activity at 10 µM: compound 10 µM; for remaining activity at 100 µM: compound 100 µM, read-out: % Remaining Activity
T1 sequence (Q9Y052 1-315): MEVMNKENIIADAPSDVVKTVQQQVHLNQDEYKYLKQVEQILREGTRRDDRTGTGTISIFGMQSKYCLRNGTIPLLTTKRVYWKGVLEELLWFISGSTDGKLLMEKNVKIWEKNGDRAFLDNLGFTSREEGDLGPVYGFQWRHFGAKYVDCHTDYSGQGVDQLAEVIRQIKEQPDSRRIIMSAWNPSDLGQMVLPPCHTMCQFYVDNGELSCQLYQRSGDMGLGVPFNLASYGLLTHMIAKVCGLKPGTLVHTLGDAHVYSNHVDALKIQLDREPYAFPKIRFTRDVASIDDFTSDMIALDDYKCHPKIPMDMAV
From the text: (§1) The recombinant human, rat, mouse, T. spiralis and C. elegans TS proteins were produced, purified and separated into phosphorylated and non-phosphorylated fraction, as previously described. TS activity was monitored, following tritium release from [5-^3H]dUMP, and its inhibition studied as earlier reported.

[1] = tested on: U-118 MG human glioblastoma cells; experiment: Cytotoxicity, neutral red uptake (NR) assay; assay type: cell-based
Experimental: (§2) Biological effect of alvaxanthone and rheediaxanthone B on normal (BJ) and cancer cells (U-118 MG and SCC-15) was estimated using two viability assays, the neutral red uptake (NR) and tetrazolium salts reduction (XTT) assays.
(§3) Human glioblastoma cells U-118 MG (ATCC® HTB-15), human squamous carcinoma cells SCC-15 (ATCC® CRL-1623), and normal human skin fibroblasts (ATCC® CRL-2522) were grown, their morphology checked, and number and viability estimated as earlier presented.
(§4) Influence of selected compounds on cells was tested by performing the cytotoxicity (NR and XTT) assays, proliferation assay, cell adhesion assay, cell migration assay, determination of intracellular ATP level, and apoptosis assay as previously reported.

[2] = tested on: SCC-15 human squamous carcinoma cells; experiment: Cytotoxicity, neutral red uptake (NR) assay; assay type: cell-based; conditions: Homo sapiens
Experimental: as §2, §3, §4

TsTS = TsTS (Trichinella spiralis, UniProt Q9NDD3); experiment: Inhibition of TS-catalyzed reaction (tritium release from [5-3H]dUMP); assay type: biochemical, T. spiralis; conditions: for remaining activity at 100 µM: compound 100 µM
Sequence of TsTS (Q9NDD3 entry or part of it): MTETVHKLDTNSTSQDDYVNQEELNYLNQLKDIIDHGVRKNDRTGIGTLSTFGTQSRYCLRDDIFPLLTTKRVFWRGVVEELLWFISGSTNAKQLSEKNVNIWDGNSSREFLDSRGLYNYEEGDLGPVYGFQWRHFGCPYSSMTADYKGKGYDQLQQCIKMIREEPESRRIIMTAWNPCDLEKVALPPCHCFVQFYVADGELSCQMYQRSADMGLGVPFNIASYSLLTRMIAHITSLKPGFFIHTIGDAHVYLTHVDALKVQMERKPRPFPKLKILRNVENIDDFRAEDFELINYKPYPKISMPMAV
From the text: as §1

[3] = tested on: caspases 3/7 in BJ, U-118 MG, and SCC-15 cells; experiment: Apo-ONE Homogenous Caspase-3/7 Assay; assay type: cell-based, human; conditions: 48 h, 5–40 µM, span over the three cell lines
Experimental: (§5) Figure 4 Changes of caspase-3/7 activities and intracellular ATP level in BJ, U-118 MG, and SCC-15 cells after 48-h incubation with 5–40 µM alvaxanthone or rheediaxanthone B. Median results are presented of three independent experiments, each performed in triplicate. The whiskers are lower (25%) and upper (75%) quartile ranges.
The Apo-ONE® Homogenous Caspase-3/7 Assay provides a measurement of the executioner caspases 3/7 activation, characteristic for apoptosis induced via both the intrinsic and extrinsic pathway. It was used to determine apoptosis induction in cells by alvaxanthone and rheediaxanthone B. In each of the three cell lines, compared to the respective non-treated control, treatment with each of the two compounds for 48 h led to a significant activation of the caspases 3/7 (by 2- to 10-fold for alvaxanthone and 8- to 18-fold for rheediaxanthone B), the effect being stronger in cancer than normal cells (Figure 4).
as §4

SCC-15 cells [4] = experiment: Intracellular ATP level (CellTiterGlo); assay type: cell-based, human; conditions: 48-h incubation, squamous carcinoma cells
Experimental: as §5
(§6) On the other hand, rheediaxanthone B caused a reduction of ATP level down to around 30% in glioma cells and fibroblasts, and to 20% in squamous carcinoma cells (Figure 4). In general, with increasing Caspase-3/7 activity the ATP level was decreasing, in accord with the results of Reference.
as §4

U-118 MG cells [5] = experiment: Intracellular ATP level (CellTiterGlo); assay type: cell-based, human; conditions: 48-h incubation, glioma cells
Experimental: as §5, §6, §4

BJ cells [6] = experiment: Intracellular ATP level (CellTiterGlo); assay type: cell-based, human; conditions: 48-h incubation, fibroblasts
Experimental: as §5, §6, §4

[7] = tested on: BJ normal human skin fibroblasts; experiment: Cytotoxicity, neutral red uptake (NR) assay; assay type: cell-based; conditions: Homo sapiens, Skin fibroblast
Experimental: as §2, §3, §4

hTS = target: T2, hTS (Homo sapiens, UniProt P04818); experiment: Inhibition of TS-catalyzed reaction (tritium release from [5-3H]dUMP); assay type: biochemical; conditions: for remaining activity at 10 µM: compound 10 µM; for remaining activity at 100 µM: compound 100 µM, read-out: % Remaining Activity
T2 construct: made in house
T2 sequence (P04818 whole entry): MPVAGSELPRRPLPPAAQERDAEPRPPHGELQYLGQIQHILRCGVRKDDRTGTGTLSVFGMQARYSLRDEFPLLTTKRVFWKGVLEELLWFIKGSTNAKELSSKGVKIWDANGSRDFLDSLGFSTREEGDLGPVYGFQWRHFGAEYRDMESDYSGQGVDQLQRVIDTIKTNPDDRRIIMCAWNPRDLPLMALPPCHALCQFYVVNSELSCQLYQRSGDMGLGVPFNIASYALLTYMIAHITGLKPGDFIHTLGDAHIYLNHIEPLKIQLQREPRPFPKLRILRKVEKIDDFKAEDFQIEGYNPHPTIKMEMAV
From the text: as §1

mTS = target: T3, mTS (Mus musculus, UniProt P07607); experiment: as above; assay type: biochemical; conditions: for remaining activity at 10 µM: compound 10 µM; for remaining activity at 100 µM: compound 100 µM, read-out: % Remaining Activity
T3 construct: made in house
T3 sequence (P07607 whole entry): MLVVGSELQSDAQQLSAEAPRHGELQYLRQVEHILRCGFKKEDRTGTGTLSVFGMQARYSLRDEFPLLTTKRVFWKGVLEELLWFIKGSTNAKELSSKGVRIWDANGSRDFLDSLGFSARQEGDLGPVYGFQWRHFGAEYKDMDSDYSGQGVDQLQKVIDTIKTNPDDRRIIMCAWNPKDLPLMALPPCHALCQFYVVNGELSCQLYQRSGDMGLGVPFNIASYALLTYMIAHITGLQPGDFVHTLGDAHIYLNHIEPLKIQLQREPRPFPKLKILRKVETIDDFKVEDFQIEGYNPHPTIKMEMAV
From the text: as §1

C. elegans [8] = experiment: Toxicity to C. elegans (population growth); conditions: Caenorhabditis elegans, read-out: LC50 (reduction of growth of the nematode population)
Experimental: C. elegans was maintained as previously described. The effect of the compounds studied on C. elegans population growth was determined as earlier presented.

[9] = tested on: BJ, U-118 MG and SCC-15 cells; experiment: NR assay, summary over the three cell lines; assay type: cell-based, human; conditions: Homo sapiens, 48 h, span over BJ
Experimental: as §2
Thus, alvaxanthone may be damaging mitochondria and impairing their metabolism exerting one of possible mechanisms active in destroying cancer cells. Changes of cell morphology in dependence on increasing alvaxanthone and rheediaxanthone B concentration were also recorded. While the glioma and squamous carcinoma cells formed clusters, lost their adhesion, shrank, and accumulated less NR dye, normal fibroblasts preserved rather normal shapes but the amount of the neutral red dye and confluence of cells decreased. In addition, a lower number of BJ cells was detected (Figure 1B).
as §4

SCC-15 cells [10] = experiment: Cell adhesion, crystal violet assay; assay type: cell-based, human; conditions: 48-h treatment
Experimental: (§7) Cancer metastasis, resulting from an impairment of adhesion between cancer cells and the extracellular matrix may cause cell migration from a primary tumor into distant parts of an organism. The cristal violet assay was used to examine alvaxanthone and rheediaxanthone B ability to influence cellular adhesion.
(§8) Figure 3 Influence of alvaxanthone or rheediaxanthone B on BJ, U-118 MG, and SCC-15 cells adhesion after 48-h treatment. The crystal violet assay was used. Results are medians of triplicate assays of three independent experiments expressed as a % of non-treated controls. The whiskers are lower (25%) and upper (75%) quartile ranges. * p ≤ 0.05, Kruskal–Wallis test (against non-treated control).
as §4

U-118 MG cells [11] = experiment: Cell adhesion, crystal violet assay; assay type: cell-based, human; conditions: 48-h treatment
Experimental: as §7, §8, §4

BJ cells [12] = experiment: Cell adhesion, crystal violet assay; assay type: cell-based, human; conditions: 48-h treatment
Experimental: as §7, §8, §4

C. elegans [13] = conditions: read-out: LC50 (C. elegans population growth); previously found; cited from earlier work
[14] = 20 µM dUMP and 50 µM meTHF, experiment not repeated, read-out: IC50
[15] = IC50 Assessment, 20 µM dUMP, 50 µM meTHF
[16] = 20 µM dUMP, 50 µM meTHF, read-out: IC50 Assessment

`C=CC(C)(C)c1c2c(c3oc4c(O)c(O)ccc4c(=O)c3c1O)C(C)(C)C(C)O2` (stereo not shown) [Rheediaxanthone B (17), Rheediaxanthone B] gave an IC50 (CeTS; [14]) of 11.4 µM, a remaining activity at 10 µM (CeTS; 20 µM dUMP, 50 µM meTHF) of 59% and a remaining activity at 100 µM (CeTS; 20 µM dUMP, 50 µM meTHF) of 14%. The IC50 ([1]; neutral red assay, U-118 MG, read-out: IC50) was 4.75 µM, the IC50 ([2]; SCC-15, neutral red assay, read-out: IC50) was 9.2 µM and the IC50 (TsTS; IC50, 20 µM dUMP and 50 µM meTHF, mean ± S.E.M. (N=3) for alvaxanthone, rheediaxanthone B not repeated) was 50.8 µM. For the same compound, the remaining activity at 10 µM (TsTS; compound 10 µM, 20 µM dUMP, 50 µM meTHF) was 68%, the remaining activity at 100 µM (TsTS; 20 µM dUMP, 50 µM meTHF) was 40% and the “activation of the caspases 3/7 compared to non-treated control” value [3] was 8- to 18 fold. For the same compound, the “ATP level reduced down to” value (SCC-15 cells [4]) was 20%, the “ATP level reduced down to” value (U-118 MG cells [5]) was “around 30%” and the “ATP level reduced down to” value (BJ cells [6]) was “around 30%”. For the same compound, the IC50 ([7]; neutral red assay, BJ, read-out: IC50) was 5.5 µM, the IC50 (hTS; 20 µM dUMP and 50 µM meTHF, mean ± S.E.M. (N=3) for alvaxanthone, rheediaxanthone B not repeated, read-out: IC50) was 17.9 µM and the remaining activity at 10 µM (hTS; 20 µM dUMP, 50 µM meTHF) was 59%. It also gave a remaining activity at 100 µM (hTS; 20 µM dUMP, 50 µM meTHF) of 5%, an IC50 (mTS; [14]) of 14.3 µM and a remaining activity at 10 µM (mTS; 20 µM dUMP, 50 µM meTHF) of 56%. The remaining activity at 100 µM (mTS; 20 µM dUMP, 50 µM meTHF) was 2%, the LC50 (C. elegans [8]) was 16 ± 10.2 µM and the IC50 [9] was under 10 µM. The “concentration at which reduction of adhesion is significant/apparent” value (SCC-15 cells [10]) was 5 µM, the “concentration at which reduction of adhesion is significant/apparent” value (U-118 MG cells [11]) was 10 µM and the “concentration at which reduction of adhesion is significant/apparent” value (BJ cells [12]) was 5 µM.
In the case of `COC(=O)Nc1nc2ccc(C(=O)c3ccccc3)cc2[nH]1` [mebendazole], the LC50 (C. elegans [13]) is given as 4 µM.
With `COc1ccc2oc3ccccc3c(=O)c2c1` [2-OMe-Xanthone (20), 2-OMe-Xanthone] the remaining activity at 1000 µM (CeTS) was 95%, the IC50 (CeTS; [15]) was over 1000 µM and the IC50 ([1]; U-118-MG) was over 40 µM. It also gave an IC50 [2] of over 40 µM, an IC50 (TsTS; [15]) of over 1000 µM and a remaining activity at 1000 µM (TsTS; compound 1000 µM, 20 µM dUMP, 50 µM meTHF) of 92%. The IC50 [7] was over 40 µM, the remaining activity at 1000 µM (hTS) was 88% and the IC50 (hTS; [16]) was over 1000 µM. For the same compound, the remaining activity at 1000 µM (mTS) was 84%, the IC50 (mTS; [16]) was over 1000 µM and the LC50 (C. elegans [8]) was 33.8 ± 2.1 µM.
`COc1c(O)cc2oc3cc(O)c(CC=C(C)C)c(O)c3c(=O)c2c1CC=C(C)C` [α-Mangostin (21), α-Mangostin, reference compound] gave a remaining activity at 10 µM (CeTS; 20 µM dUMP, 50 µM meTHF) of 79%, a remaining activity at 100 µM (CeTS; 20 µM dUMP, 50 µM meTHF) of 27% and an IC50 (TsTS; [15]) of over 100 µM. For the same compound, the remaining activity at 100 µM (TsTS; 20 µM dUMP, 50 µM meTHF) was 85%, the LC50 (C. elegans [13]) was 3.8 µM and the remaining activity at 10 µM (hTS; 20 µM dUMP, 50 µM meTHF) was 89%. The remaining activity at 100 µM (hTS; 20 µM dUMP, 50 µM meTHF) was 19%, the remaining activity at 10 µM (mTS; 20 µM dUMP, 50 µM meTHF) was 75% and the remaining activity at 100 µM (mTS; 20 µM dUMP, 50 µM meTHF) was 5%.

Source: article PMC7356228, “Alvaxanthone, a Thymidylate Synthase Inhibitor with Nematocidal and Tumoricidal Activities” (Molecules, 2020)
